Measurements published in patent US3951955A, “Penicillins substituted with heterocyclic groups” (Sumitomo Chemical Company, Limited, priority 1970, dated 1976).
Values after ≈ are worked out from the molar mass of the structure shown.

Test system: Proteus miravilis 2425
Experiment: minimal inhibitory concentration, agar dilution method (in vitro)
Format: cell-based
Details: not given
Source text: (§1) When determined according to the agar dilution method, the penicillins [I] afford the minimal inhibitory concentrations as shown in the following Table 1: […]
In the case of `CC1(C)S[C@@H]2C(NC(=O)C(N)c3ccccc3)C(=O)N2[C@H]1C(=O)O` (stereo partly drawn) [Ampicillin, 6-(α-aminophenylacetamido)-penicillanic acid, reference compound], the MIC is reported as 3.13 µg/mL (≈ 8.96 µM).
With `CC1(C)SC2C(NC(=O)C(NC(=O)c3cnc4cnc(O)nc4c3O)c3ccccc3)C(=O)N2C1C(=O)O` (centres unmarked) [Example 53] the MIC was 6.25 µg/mL (≈ 11.6 µM).
`COc1nc(OC)c2ncc(C(=O)NC(C(=O)NC3C(=O)N4C3SC(C)(C)C4C(=O)O)c3ccccc3)c(O)c2n1` (centres unmarked) [Example 54] showed an MIC of 3.13 µg/mL (≈ 5.37 µM).
Work on `Cc1nc(C)c2ncc(C(=O)NC(C(=O)NC3C(=O)N4C3SC(C)(C)C4C(=O)O)c3ccccc3)c(O)c2n1` (centres unmarked) [Example 55] yielded an MIC of 3.13 µg/mL (≈ 5.68 µM).
For `Cc1ncc2ncc(C(=O)NC(C(=O)NC3C(=O)N4C3SC(C)(C)C4C(=O)O)c3ccccc3)c(O)c2n1` (centres unmarked) [Example 56], the MIC was 6.25 µg/mL (≈ 11.6 µM).
With `CC1(C)SC2C(NC(=O)C(NC(=O)c3cnc4cnc(NC(=O)OCc5ccccc5)nc4c3O)c3ccccc3)C(=O)N2C1C(=O)O` (centres unmarked) [Example 57] the MIC was 3.13 µg/mL (≈ 4.66 µM).
Work on `CC1(C)SC2C(NC(=O)C(NC(=O)c3cnc4cncnc4c3O)c3cccs3)C(=O)N2C1C(=O)O` (centres unmarked) [Example 58] yielded an MIC of 3.13 µg/mL (≈ 5.92 µM).
`CC1(C)SC2C(NC(=O)C(NC(=O)c3cnc4cnc(N)nc4c3O)c3ccccc3)C(=O)N2C1C(=O)O` (centres unmarked) [Example 59] showed an MIC of 3.13 µg/mL (≈ 5.82 µM).
Work on `COc1cc2ncc(C(=O)NC(C(=O)NC3C(=O)N4C3SC(C)(C)C4C(=O)O)c3ccccc3)c(O)c2cn1` (centres unmarked) [Example 60] yielded an MIC of 3.13 µg/mL (≈ 5.67 µM).

Test system: Pseudomonas aeruginosa 104
Experiment: as above
Format: cell-based
Details: not given
Source text: as §1
Work on `CC1(C)S[C@@H]2C(NC(=O)C(N)c3ccccc3)C(=O)N2[C@H]1C(=O)O` (stereo partly drawn) [Ampicillin, 6-(α-aminophenylacetamido)-penicillanic acid, reference compound] yielded an MIC of over 200 µg/mL.
For `CC1(C)SC2C(NC(=O)C(NC(=O)c3cnc4cnc(O)nc4c3O)c3ccccc3)C(=O)N2C1C(=O)O` (centres unmarked) [Example 53], the MIC was 6.25 µg/mL (≈ 11.6 µM).
Molecule `COc1nc(OC)c2ncc(C(=O)NC(C(=O)NC3C(=O)N4C3SC(C)(C)C4C(=O)O)c3ccccc3)c(O)c2n1` (centres unmarked) [Example 54] has an MIC of 6.25 µg/mL (≈ 10.7 µM).
Molecule `Cc1nc(C)c2ncc(C(=O)NC(C(=O)NC3C(=O)N4C3SC(C)(C)C4C(=O)O)c3ccccc3)c(O)c2n1` (centres unmarked) [Example 55] has an MIC of 3.13 µg/mL (≈ 5.68 µM).
`Cc1ncc2ncc(C(=O)NC(C(=O)NC3C(=O)N4C3SC(C)(C)C4C(=O)O)c3ccccc3)c(O)c2n1` (centres unmarked) [Example 56] showed an MIC of 3.13 µg/mL (≈ 5.83 µM).
With `CC1(C)SC2C(NC(=O)C(NC(=O)c3cnc4cnc(NC(=O)OCc5ccccc5)nc4c3O)c3ccccc3)C(=O)N2C1C(=O)O` (centres unmarked) [Example 57] the MIC was 6.25 µg/mL (≈ 9.3 µM).
`CC1(C)SC2C(NC(=O)C(NC(=O)c3cnc4cncnc4c3O)c3cccs3)C(=O)N2C1C(=O)O` (centres unmarked) [Example 58] gave an MIC of 3.13 µg/mL (≈ 5.92 µM).
Work on `CC1(C)SC2C(NC(=O)C(NC(=O)c3cnc4cnc(N)nc4c3O)c3ccccc3)C(=O)N2C1C(=O)O` (centres unmarked) [Example 59] yielded an MIC of 3.13 µg/mL (≈ 5.82 µM).
`COc1cc2ncc(C(=O)NC(C(=O)NC3C(=O)N4C3SC(C)(C)C4C(=O)O)c3ccccc3)c(O)c2cn1` (centres unmarked) [Example 60] gave an MIC of 12.5 µg/mL (≈ 22.7 µM).

Test system: Escherichia coli NIHJ
Experiment: as above
Format: cell-based
Details: not given
Source text: as §1
Work on `CC1(C)S[C@@H]2C(NC(=O)C(N)c3ccccc3)C(=O)N2[C@H]1C(=O)O` (stereo partly drawn) [Ampicillin, 6-(α-aminophenylacetamido)-penicillanic acid, reference compound] yielded an MIC of 6.25 µg/mL (≈ 17.9 µM).
`CC1(C)SC2C(NC(=O)C(NC(=O)c3cnc4cnc(O)nc4c3O)c3ccccc3)C(=O)N2C1C(=O)O` (centres unmarked) [Example 53] showed an MIC of 3.13 µg/mL (≈ 5.81 µM).
With `COc1nc(OC)c2ncc(C(=O)NC(C(=O)NC3C(=O)N4C3SC(C)(C)C4C(=O)O)c3ccccc3)c(O)c2n1` (centres unmarked) [Example 54] the MIC was 6.25 µg/mL (≈ 10.7 µM).
`Cc1nc(C)c2ncc(C(=O)NC(C(=O)NC3C(=O)N4C3SC(C)(C)C4C(=O)O)c3ccccc3)c(O)c2n1` (centres unmarked) [Example 55] gave an MIC of 3.13 µg/mL (≈ 5.68 µM).
`Cc1ncc2ncc(C(=O)NC(C(=O)NC3C(=O)N4C3SC(C)(C)C4C(=O)O)c3ccccc3)c(O)c2n1` (centres unmarked) [Example 56] gave an MIC of 3.13 µg/mL (≈ 5.83 µM).
For `CC1(C)SC2C(NC(=O)C(NC(=O)c3cnc4cnc(NC(=O)OCc5ccccc5)nc4c3O)c3ccccc3)C(=O)N2C1C(=O)O` (centres unmarked) [Example 57], the MIC was 6.25 µg/mL (≈ 9.3 µM).
In the case of `CC1(C)SC2C(NC(=O)C(NC(=O)c3cnc4cncnc4c3O)c3cccs3)C(=O)N2C1C(=O)O` (centres unmarked) [Example 58], the MIC is reported as 1.56 µg/mL (≈ 2.95 µM).
Work on `CC1(C)SC2C(NC(=O)C(NC(=O)c3cnc4cnc(N)nc4c3O)c3ccccc3)C(=O)N2C1C(=O)O` (centres unmarked) [Example 59] yielded an MIC of 3.13 µg/mL (≈ 5.82 µM).
In the case of `COc1cc2ncc(C(=O)NC(C(=O)NC3C(=O)N4C3SC(C)(C)C4C(=O)O)c3ccccc3)c(O)c2cn1` (centres unmarked) [Example 60], the MIC is reported as 6.25 µg/mL (≈ 11.3 µM).

Test system: Staphylococcus aureus 209P
Experiment: as above
Format: cell-based
Details: not given
Source text: as §1
Work on `CC1(C)S[C@@H]2C(NC(=O)C(N)c3ccccc3)C(=O)N2[C@H]1C(=O)O` (stereo partly drawn) [Ampicillin, 6-(α-aminophenylacetamido)-penicillanic acid, reference compound] yielded an MIC of 0.2 µg/mL (≈ 0.572 µM).
For `CC1(C)SC2C(NC(=O)C(NC(=O)c3cnc4cnc(O)nc4c3O)c3ccccc3)C(=O)N2C1C(=O)O` (centres unmarked) [Example 53], the MIC was 1.56 µg/mL (≈ 2.9 µM).
`COc1nc(OC)c2ncc(C(=O)NC(C(=O)NC3C(=O)N4C3SC(C)(C)C4C(=O)O)c3ccccc3)c(O)c2n1` (centres unmarked) [Example 54] showed an MIC of 1.56 µg/mL (≈ 2.68 µM).
With `Cc1nc(C)c2ncc(C(=O)NC(C(=O)NC3C(=O)N4C3SC(C)(C)C4C(=O)O)c3ccccc3)c(O)c2n1` (centres unmarked) [Example 55] the MIC was 0.78 µg/mL (≈ 1.42 µM).
Work on `Cc1ncc2ncc(C(=O)NC(C(=O)NC3C(=O)N4C3SC(C)(C)C4C(=O)O)c3ccccc3)c(O)c2n1` (centres unmarked) [Example 56] yielded an MIC of 0.78 µg/mL (≈ 1.45 µM).
`CC1(C)SC2C(NC(=O)C(NC(=O)c3cnc4cnc(NC(=O)OCc5ccccc5)nc4c3O)c3ccccc3)C(=O)N2C1C(=O)O` (centres unmarked) [Example 57] showed an MIC of 1.56 µg/mL (≈ 2.32 µM).
With `CC1(C)SC2C(NC(=O)C(NC(=O)c3cnc4cncnc4c3O)c3cccs3)C(=O)N2C1C(=O)O` (centres unmarked) [Example 58] the MIC was 0.78 µg/mL (≈ 1.48 µM).
For `CC1(C)SC2C(NC(=O)C(NC(=O)c3cnc4cnc(N)nc4c3O)c3ccccc3)C(=O)N2C1C(=O)O` (centres unmarked) [Example 59], the MIC was 0.78 µg/mL (≈ 1.45 µM).
`COc1cc2ncc(C(=O)NC(C(=O)NC3C(=O)N4C3SC(C)(C)C4C(=O)O)c3ccccc3)c(O)c2cn1` (centres unmarked) [Example 60] showed an MIC of 1.56 µg/mL (≈ 2.83 µM).

Test system: Klebsiella pneumoniae 602
Experiment: as above
Format: cell-based
Details: not given
Source text: as §1
In the case of `CC1(C)S[C@@H]2C(NC(=O)C(N)c3ccccc3)C(=O)N2[C@H]1C(=O)O` (stereo partly drawn) [Ampicillin, 6-(α-aminophenylacetamido)-penicillanic acid, reference compound], the MIC is reported as 50 µg/mL (≈ 143 µM).
`CC1(C)SC2C(NC(=O)C(NC(=O)c3cnc4cnc(O)nc4c3O)c3ccccc3)C(=O)N2C1C(=O)O` (centres unmarked) [Example 53] showed an MIC of 6.25 µg/mL (≈ 11.6 µM).
With `COc1nc(OC)c2ncc(C(=O)NC(C(=O)NC3C(=O)N4C3SC(C)(C)C4C(=O)O)c3ccccc3)c(O)c2n1` (centres unmarked) [Example 54] the MIC was 3.13 µg/mL (≈ 5.37 µM).
In the case of `Cc1nc(C)c2ncc(C(=O)NC(C(=O)NC3C(=O)N4C3SC(C)(C)C4C(=O)O)c3ccccc3)c(O)c2n1` (centres unmarked) [Example 55], the MIC is reported as 1.56 µg/mL (≈ 2.83 µM).
`Cc1ncc2ncc(C(=O)NC(C(=O)NC3C(=O)N4C3SC(C)(C)C4C(=O)O)c3ccccc3)c(O)c2n1` (centres unmarked) [Example 56] showed an MIC of 3.13 µg/mL (≈ 5.83 µM).
For `CC1(C)SC2C(NC(=O)C(NC(=O)c3cnc4cnc(NC(=O)OCc5ccccc5)nc4c3O)c3ccccc3)C(=O)N2C1C(=O)O` (centres unmarked) [Example 57], the MIC was 3.13 µg/mL (≈ 4.66 µM).
Molecule `CC1(C)SC2C(NC(=O)C(NC(=O)c3cnc4cncnc4c3O)c3cccs3)C(=O)N2C1C(=O)O` (centres unmarked) [Example 58] has an MIC of 1.56 µg/mL (≈ 2.95 µM).
For `CC1(C)SC2C(NC(=O)C(NC(=O)c3cnc4cnc(N)nc4c3O)c3ccccc3)C(=O)N2C1C(=O)O` (centres unmarked) [Example 59], the MIC was 1.56 µg/mL (≈ 2.9 µM).
In the case of `COc1cc2ncc(C(=O)NC(C(=O)NC3C(=O)N4C3SC(C)(C)C4C(=O)O)c3ccccc3)c(O)c2cn1` (centres unmarked) [Example 60], the MIC is reported as 3.13 µg/mL (≈ 5.67 µM).

Test system: Pseudomonas
Experiment: not given
Details: background statement on prior art; cited from earlier work
In the case of `CC1(C)S[C@@H]2C(NC(=O)C(N)c3ccccc3)C(=O)N2[C@H]1C(=O)O` (stereo partly drawn) [Ampicillin, 6-(α-aminophenylacetamido)-penicillanic acid, reference compound], the “antimicrobial activity against Pseudomonas” value is listed as “does not exert any appreciable antimicrobial activity against Pseudomonas”.

Test system: various gram-positive and gram-negative bacteria
Experiment: not given
Details: background statement on prior art; cited from earlier work
For `CC1(C)S[C@@H]2C(NC(=O)C(N)c3ccccc3)C(=O)N2[C@H]1C(=O)O` (stereo partly drawn) [Ampicillin, 6-(α-aminophenylacetamido)-penicillanic acid, reference compound], the “growth inhibition / antimicrobial activity against gram-positive and gram-negative bacteria” value is given as “inhibits the growth of various gram-positive and gram-negativebacteria”.
